Data from patent US20230322761A1, “DEGRADATION OF BRUTON'S TYROSINE KINASE (BTK) BY CONJUGATION OF BTK INHIBITORS WITH E3 LIGASE LIGAND AND METHODS OF USE” (BEIGENE, LTD., priority 2020, published 2023).

Biological target: T1, BTK (Homo sapiens, UniProt Q06187)
T1 construct: endogenous in cells; host or cells: TMD-8 cells
Assay: BTK degradation in TMD-8 cells, HTRF assay after 6 h treatment
Type: cell-based
Settings: IC50 (DC50) of BTK degradation
In short: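 TMD-8 cells treated for 6 h with 8 compound doses in 6-fold dilution steps from a 1 mM 500× DMSO stock (0.2% DMSO), then lysed 30 min at room temperature. BTK in lysate detected by HTRF (665/620 nm) after overnight antibody incubation; DC50 from four-parameter curve fit.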

T1 sequence (Q06187 whole entry): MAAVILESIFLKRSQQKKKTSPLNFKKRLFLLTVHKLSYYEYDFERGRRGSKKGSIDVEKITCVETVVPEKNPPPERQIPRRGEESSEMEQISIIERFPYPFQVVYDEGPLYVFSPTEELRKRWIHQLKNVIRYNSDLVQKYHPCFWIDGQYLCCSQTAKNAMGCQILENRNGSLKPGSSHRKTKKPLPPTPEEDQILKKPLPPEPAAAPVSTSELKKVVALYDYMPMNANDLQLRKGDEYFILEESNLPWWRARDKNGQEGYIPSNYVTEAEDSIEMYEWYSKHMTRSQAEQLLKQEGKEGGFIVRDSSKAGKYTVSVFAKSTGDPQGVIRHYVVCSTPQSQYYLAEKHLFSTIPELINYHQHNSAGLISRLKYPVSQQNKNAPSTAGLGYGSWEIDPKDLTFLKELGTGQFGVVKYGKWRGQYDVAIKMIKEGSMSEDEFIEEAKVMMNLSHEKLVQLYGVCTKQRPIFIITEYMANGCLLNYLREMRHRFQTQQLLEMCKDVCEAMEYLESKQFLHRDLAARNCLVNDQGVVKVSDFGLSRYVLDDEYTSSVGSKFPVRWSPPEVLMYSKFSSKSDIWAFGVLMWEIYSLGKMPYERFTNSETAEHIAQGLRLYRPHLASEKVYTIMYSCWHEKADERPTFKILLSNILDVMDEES

Structure (SMILES) | DC50 [nM]
Cc1cc(-c2n[nH]c3ncc(-c4ccc(N5CC6CN(CCc7ccc(C8CCC(=O)NC8=O)c(C)n7)CC6C5)cn4)cc23)ccc1[C@@H](C)NC(=O)c1noc(C(C)(C)C)n1 (stereo partly drawn) [Example 189, 5-(tert-butyl)-N-((1R)-1-(4-(5-(5-(5-(2-(5-(2,6-dioxopiperidin-3-yl)-6-methylpyridin-2-yl)ethyl)hexahydropyrrolo[3,4-c]pyrrol-2(1H)-yl)pyridin-2-yl)-1H-pyrazolo[3,4-b]pyridin-3-yl)-2-methylphenyl)ethyl)-1,2,4-oxadiazole-3-carboxamide] | 23.6
Cc1cc(-c2n[nH]c3ncc(-c4ccc(N5CCN(CC6CCN(c7ccc(N8CCC(=O)NC8=O)cc7)CC6)CC5)cc4)cc23)ccc1[C@@H](C)NC(=O)c1noc(C2(CO)CC2)n1 [Example 184, (R)—N-(1-(4-(5-(4-(4-((1-(4-(2,4-dioxotetrahydropyrimidin-1(2H)-yl)phenyl)piperidin-4-yl)methyl)piperazin-1-yl)phenyl)-1H-pyrazolo[3,4-b]pyridin-3-yl)-2-methylphenyl)ethyl)-5-(1-(hydroxymethyl)cyclopropyl)-1,2,4-oxadiazole-3-carboxamide] | 14
Cc1cc(-c2n[nH]c3ncc(-c4ccc(N5CCN(CC(F)(F)c6ccc(C7CCC(=O)NC7=O)cn6)CC5)cc4)cc23)ccc1[C@@H](C)NC(=O)c1nc(C(C)(C)C)no1 (stereo partly drawn) [Example 192, 3-(tert-butyl)-N-((1R)-1-(4-(5-(4-(4-(2-(5-(2,6-dioxopiperidin-3-yl)pyridin-2-yl)-2,2-difluoroethyl)piperazin-1-yl)phenyl)-1H-pyrazolo[3,4-b]pyridin-3-yl)-2-methylphenyl)ethyl)-1,2,4-oxadiazole-5-carboxamide] | 4.03
Cc1cc(-c2n[nH]c3ncc(-c4ccc(N5CCN(CCc6ccc([C@@H]7CCC(=O)NC7=O)c(F)c6)CC5)cn4)cc23)ccc1[C@@H](C)NC(=O)c1noc(C(C)(C)C)n1 [Example 182, 5-(tert-butyl)-N—((R)-1-(4-(5-(5-(4-(4-((S)-2,6-dioxopiperidin-3-yl)-3-fluorophenethyl)piperazin-1-yl)pyridin-2-yl)-1H-pyrazolo[3,4-b]pyridin-3-yl)-2-methylphenyl)ethyl)-1,2,4-oxadiazole-3-carboxamide] | 11.8
Cc1cc(-c2n[nH]c3ncc(-c4ccc(N5CCN(CCc6ccc([C@H]7CCC(=O)NC7=O)cc6)CC5)cc4)cc23)ccc1[C@@H](C)NC(=O)c1noc(C(C)(C)C)n1 [Example 111, 5-(tert-butyl)-N—((R)-1-(4-(5-(4-(4-(4-((R)-2,6-dioxopiperidin-3-yl)phenethyl)piperazin-1-yl)phenyl)-1H-pyrazolo[3,4-b]pyridin-3-yl)-2-methylphenyl)ethyl)-1,2,4-oxadiazole-3-carboxamide] | 4.93
CC(C)(C)c1nc(C(=O)NCc2ccc(-c3n[nH]c4ncc(-c5ccc(N6CCN(CC7CCN(c8ccc(N9CCC(=O)NC9=O)cc8)CC7)CC6)cc5)cc34)cc2CO)no1 [Example 121, 5-(tert-butyl)-N-(4-(5-(4-(4-((1-(4-(2,4-dioxotetrahydropyrimidin-1(2H)-yl)phenyl)piperidin-4-yl)methyl)piperazin-1-yl)phenyl)-1H-pyrazolo[3,4-b]pyridin-3-yl)-2-(hydroxymethyl)benzyl)-1,2,4-oxadiazole-3-carboxamide] | 2.39
Cc1cc(-c2n[nH]c3ncc(-c4ccc(N5CCN(CCc6ccc(N7CC(=O)NC7=O)cc6)CC5)cc4)cc23)ccc1[C@@H](C)NC(=O)c1nc(C(C)(C)C)no1 [Example 217, (R)-3-(tert-butyl)-N-(1-(4-(5-(4-(4-(4-(2,4-dioxoimidazolidin-1-yl)phenethyl)piperazin-1-yl)phenyl)-1H-pyrazolo[3,4-b]pyridin-3-yl)-2-methylphenyl)ethyl)-1,2,4-oxadiazole-5-carboxamide] | 1960
Cc1cc(-c2n[nH]c3ncc(-c4ccc(N5CCN(CC(F)(F)c6ccc(C7CCC(=O)NC7=O)cn6)CC5)cc4)cc23)ccc1[C@@H](C)NC(=O)c1noc(C(C)(C)C)n1 (stereo partly drawn) [Example 193, 5-(tert-butyl)-N-((1R)-1-(4-(5-(4-(4-(2-(5-(2,6-dioxopiperidin-3-yl)pyridin-2-yl)-2,2-difluoroethyl)piperazin-1-yl)phenyl)-1H-pyrazolo[3,4-b]pyridin-3-yl)-2-methylphenyl)ethyl)-1,2,4-oxadiazole-3-carboxamide] | 3.06
Cc1cc(-c2n[nH]c3ncc(-c4ccc(N5CCN(C6CC(c7ccc([C@H]8CCC(=O)NC8=O)cc7)C6)CC5)cc4)cc23)ccc1[C@@H](C)NC(=O)c1noc(C(C)(C)C)n1 (stereo partly drawn) [Example 223, 5-(tert-butyl)-N—((R)-1-(4-(5-(4-(4-((1S,3r)-3-(4-((S)-2,6-dioxopiperidin-3-yl)phenyl)cyclobutyl)piperazin-1-yl)phenyl)-1H-pyrazolo[3,4-b]pyridin-3-yl)-2-methylphenyl)ethyl)-1,2,4-oxadiazole-3-carboxamide] | 1.56
Cc1cc(-c2n[nH]c3ncc(-c4ccc(N5CCC(COc6ccc(N7CCC(=O)NC7=O)cc6)CC5)cc4)cc23)ccc1[C@@H](C)NC(=O)c1noc(C(C)(C)C)n1 [Example 187, (R)-5-(tert-butyl)-N-(1-(4-(5-(4-(4-((4-(2,4-dioxotetrahydropyrimidin-1(2H)-yl)phenoxy)methyl)piperidin-1-yl)phenyl)-1H-pyrazolo[3,4-b]pyridin-3-yl)-2-methylphenyl)ethyl)-1,2,4-oxadiazole-3-carboxamide] | 9.56
Cc1c(CNC(=O)c2noc(C(C)(C)C)n2)ccc(-c2n[nH]c3ncc(-c4ccc(C5CCN(CC6CCN(c7ccc(N8CCC(=O)NC8=O)cc7)CC6)CC5)cc4)cc23)c1F [Example 221, 5-(tert-butyl)-N-(4-(5-(4-(1-((1-(4-(2,4-dioxotetrahydropyrimidin-1(2H)-yl)phenyl)piperidin-4-yl)methyl)piperidin-4-yl)phenyl)-1H-pyrazolo[3,4-b]pyridin-3-yl)-3-fluoro-2-methylbenzyl)-1,2,4-oxadiazole-3-carboxamide] | 1.12
